The results in this text go back to ChEMBL document CHEMBL1201862, “PubChem BioAssay data set” (2004).

Test systems include A498; DU-145; Hs-578T; KM12; M14; MCF7; MDA-MB-435; MDA-N; OVCAR-4; OVCAR-8; PC-3; RXF 393; SF-295; SK-MEL-28; SNB-19; SNB-75; SW-620; T47D; TK-10; UACC-257.
Common to all, as to test: NCI anticancer screen, dose series, 48 h

Molecules are shown by their SMILES.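 Cultured in 96-well plates, cells were exposed to test compound for 48 hours across five concentrations. GI50 is the concentration that inhibits growth by half.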 Calls of active or inactive are those of the source. Cut-off read from the data, not from the text of the source: active = GI50 up to about 1.1 µM and inactive = higher.

For `O=[N+]([O-])c1ccc(N/N=C/CC(O)(C(F)(F)F)C(F)(F)F)c([N+](=O)[O-])c1`, the GI50 in the experiment with A498 was 3.78 µM (inactive); in the experiment on DU-145 it was 3.1 µM (inactive); in the experiment with Hs-578T, 2.74 µM (inactive); in the experiment with KM12 it was 4.82 µM (inactive); in the experiment on M14, > 10 µM (inactive); in the experiment with MCF7, 3.78 µM (inactive). Moreover, the GI50 is 4.13 µM (inactive) in the experiment on MDA-MB-435; 5.25 µM (inactive) with MDA-N; 4.99 µM (inactive) in the experiment on OVCAR-4; 4.23 µM (inactive) in the experiment on OVCAR-8; 3.24 µM (inactive) with PC-3; 5.35 µM (inactive) in the experiment on RXF 393. The GI50 was 3.58 µM (inactive) in the experiment on SF-295; 7.78 µM (inactive) in the experiment with SK-MEL-28; 5.04 µM (inactive) with SNB-19; > 10 µM (inactive) in the experiment on SNB-75; 7.33 µM (inactive) in the experiment with SW-620; 3.21 µM (inactive) in the experiment with T47D. In addition, the GI50 in the experiment with TK-10 is 5.79 µM (inactive); with UACC-257, 3.65 µM (inactive).

On to `Cc1cc(S(=O)(=O)Nc2nc(Nc3ccc(Cl)cc3)n[nH]2)c(S)cc1Cl`, for which the GI50 is > 100 µM (inactive) in the experiment with A498; > 100 µM (inactive) with DU-145; 86.5 µM (inactive) in the experiment on Hs-578T; 31.6 µM (inactive) in the experiment with KM12; 59.6 µM (inactive) with M14; > 100 µM (inactive) in the experiment on MCF7. Also, the GI50 in the experiment on MDA-MB-435 was > 100 µM (inactive); in the experiment on MDA-N, 55.2 µM (inactive); in the experiment with OVCAR-4, > 100 µM (inactive); with OVCAR-8, > 100 µM (inactive); in the experiment on PC-3, > 100 µM (inactive); in the experiment on RXF 393, > 100 µM (inactive). For the same compound, the GI50 was 91.2 µM (inactive) with SF-295; > 100 µM (inactive) with SK-MEL-28; 80.9 µM (inactive) in the experiment with SNB-19; > 100 µM (inactive) in the experiment with SNB-75; > 100 µM (inactive) in the experiment on SW-620; > 100 µM (inactive) with T47D. The GI50 in the experiment with TK-10 and with UACC-257 was > 100 µM (inactive) throughout.

For the compound `COc1cc([C@@H]2c3[nH]c4ccccc4c3C(Nc3ccc([N+](=O)[O-])cc3)[C@H]3COC(=O)N23)cc(OC)c1O` (stereo not given in full), the GI50 in the experiment with A498 was 0.14 µM (active); in the experiment with DU-145, 0.321 µM (active); in the experiment with Hs-578T, 0.305 µM (active); with KM12, 0.326 µM (active); in the experiment on M14 it was 0.321 µM (active); in the experiment on MCF7 it was 0.0361 µM (active). The GI50 with MDA-MB-435 is 0.505 µM (active); in the experiment with MDA-N, 0.875 µM (active); with OVCAR-4, 1.74 µM (inactive); with OVCAR-8, 0.285 µM (active); with PC-3 it was 0.698 µM (active); with RXF 393 it was 0.382 µM (active). The GI50 is 0.125 µM (active) with SF-295; 0.291 µM (active) in the experiment on SK-MEL-28; 0.127 µM (active) with SNB-19; 0.175 µM (active) in the experiment on SNB-75; 0.248 µM (active) in the experiment with SW-620; 0.466 µM (active) in the experiment with T47D. The GI50 in the experiment on TK-10 was 0.446 µM (active); with UACC-257, 0.857 µM (active).

As for `COC(=O)C1(Cc2ccccc2)Cc2c(C)ccc(C)c2C1=O` (stereo not given), the GI50 with A498 was 46.8 µM (inactive); in the experiment on DU-145 it was 49.2 µM (inactive); with Hs-578T, 5.64 µM (inactive); in the experiment with KM12, 13.8 µM (inactive); with M14 it was 25.1 µM (inactive); in the experiment with MCF7, 28.7 µM (inactive). Also, the GI50 with MDA-MB-435 is 17.4 µM (inactive); with MDA-N, 37.1 µM (inactive); in the experiment on OVCAR-4, 32.4 µM (inactive); in the experiment on OVCAR-8, 14.4 µM (inactive); in the experiment with PC-3 it was 26.3 µM (inactive); in the experiment on RXF 393, 21.8 µM (inactive). Besides, the GI50 in the experiment with SF-295 was 31.8 µM (inactive); in the experiment with SK-MEL-28, 42.5 µM (inactive); with SNB-19 it was 48.4 µM (inactive); with SNB-75 it was 17.3 µM (inactive); in the experiment with SW-620, 40.6 µM (inactive); in the experiment on T47D it was 16.7 µM (inactive). In addition, the GI50 is 49 µM (inactive) in the experiment with TK-10 and 25.8 µM (inactive) in the experiment on UACC-257.

For the compound `O=C(O)CC(NC(=O)Nc1ccc([N+](=O)[O-])cc1)C(=O)Nc1ccc([N+](=O)[O-])cc1` (stereo not given), the GI50 in the experiment with A498 was > 100 µM (inactive); in the experiment with DU-145, > 100 µM (inactive); in the experiment on Hs-578T, 50.2 µM (inactive); with KM12, > 100 µM (inactive); in the experiment on M14 it was > 100 µM (inactive); in the experiment on MCF7, > 100 µM (inactive). The GI50 in the experiment with MDA-MB-435, in the experiment with MDA-N, in the experiment with OVCAR-4, in the experiment with OVCAR-8, in the experiment with PC-3 and in the experiment with RXF 393 was > 100 µM (inactive) in each case. Moreover, the GI50 in the experiment on SF-295, in the experiment with SK-MEL-28, with SNB-19, in the experiment on SNB-75, in the experiment with SW-620 and with T47D was > 100 µM (inactive) throughout. Also, the GI50 with TK-10 and in the experiment on UACC-257 was > 100 µM (inactive) each time.

For `CC1=C(O)C(=O)c2ccccc2C1=O`, the GI50 with A498 was > 100 µM (inactive); with DU-145 it was 64.9 µM (inactive); in the experiment with Hs-578T it was 78.2 µM (inactive); in the experiment on KM12, 23 µM (inactive); in the experiment on M14 it was 16.9 µM (inactive); with MCF7 it was 67.6 µM (inactive). Further, the GI50 is 52.6 µM (inactive) in the experiment with MDA-MB-435; 46.7 µM (inactive) in the experiment with MDA-N; > 100 µM (inactive) in the experiment on OVCAR-4; > 100 µM (inactive) with OVCAR-8; 82.6 µM (inactive) in the experiment with PC-3; 34.8 µM (inactive) in the experiment on RXF 393. Further, the GI50 is 49.4 µM (inactive) with SF-295; > 100 µM (inactive) in the experiment on SK-MEL-28; > 100 µM (inactive) with SNB-19; 44.3 µM (inactive) in the experiment with SNB-75; 84.3 µM (inactive) in the experiment on SW-620; > 100 µM (inactive) in the experiment on T47D. Besides, the GI50 in the experiment on TK-10 was 24.3 µM (inactive); with UACC-257, 47.3 µM (inactive).
